Data set [1] can be described thus: Posiphen pharmacokinetics compared across species (mouse, rat, dog, human). The format is in vivo. On the procedure: (§1) This paper describes data from multiple studies.
(§2) The detection limit was 0.025 ng/mL.

Data set [2] is described as follows: Population pharmacokinetic analysis (Nonmem) in healthy volunteers and Alzheimer's and Parkinson's patients. The class given is in vivo, human. The settings on record: popPK. On the procedure: Population pharmacokinetic analysis was conducted using data from healthy volunteers from Study 101 (single ascending dose study with 72 subjects) and Study 102 (multiple dose study with 48 volunteers) and in patients (multiple dose study in 68 patients with early Alzheimer’s or early Parkinson’s disease). Data were fit using a Bayesian approach as implemented in the software package Nonmem® (version 7.5.1, Icon Development Solutions, Dublin, Ireland). Standard model building approaches were used. After a base model was established, covariates were evaluated singly and assessed graphically using eta plots—The full model consisted of all statistically significant covariates identified during the single covariate evaluation phase, and back elimination was conducted. Each covariate was removed from the full model, and the impact of that removal was assessed based on model output. The final model performance was assessed graphically and using simulation with a visual predictive check (VPC). […]
The asymptotic standard errors (SEs) and nonparamet ric bootstrapped confidence intervals (CIs) estimated the parameter precision. Other model statistics were evaluated, such as etabar and associated p values. […]
substantial skewness or kurtosis; therefore, transforms were not evaluated. […]
Plasma concentration data were evaluated using an LTBS approach. […]

A short description of the next data set: clinical. The settings on record: human, in vivo. On the procedure:
This paper describes data from multiple studies. The healthy volunteers’ data come from the single ascending and multiple ascending dose study, whereas Alzheimer’s and Parkinson’s patients are represented by the MCI NCT01072812 study, ADCS NCT02925650 study, and AD/PD NCT04524351 study. The evaluations are based on a sample size of n = 4 for each time point.
In humans, plasma and lumbar CSF samples were collected via an indwelling catheter over 12 h (at 0, 1, 1.5, 2, 3, 4, 6, 8, and 12 h) initiated at the same time of day, 1 day prior to the start of dosing, to obtain time-dependent baseline control data, and then at the exact same times immediately after the last dose was administered. Samples were frozen and then stored at −80 °C.
In humans, the bioanalytical method was performed in accordance with current FDA, Industry Guidelines, and OECD Principles. […] The sample analysis was conducted in accordance with current GCP and GLP principles, and the results were presented for pharmacokinetic profiling (Absorption Systems, Exton, PA, USA). Calibration ranges for each analyte ranged from 1000 ng/mL to 1 ng/mL (or ng/g for brain) in plasma, brain, and CSF matrices. The detection limit was 0.025 ng/mL. The following PK parameters were collected for the purpose of this manuscript: maximum concentration (Cmax), time to maximum drug concentration (Tmax), half-life (T1/2), and the Area Under the Curve (AUC).

The nature of data set [3]: Plasma pharmacokinetics after oral Posiphen in humans (LC-MS/MS). The settings on record: for Tmax: Posiphen PO 80 mg/day (1.1 mg/kg), n = 4. The format is in vivo, human. On the procedure: as §1
Samples were frozen and then stored at −80 °C.
as §2

The conditions of data set [4]: human; side effects nausea and vomiting; cited from earlier work.

SMILES strings stand for the structures. Where two headings read alike, the source gives them in different places.

We go through one compound from PMC11117716 (Biomolecules, 2024).

One may read the half-life as the time in which the quantity being followed falls by half. As a reminder, the Km is the substrate concentration at which the rate is half of its maximum. As a reminder, the Cmax is the maximum level reached in the sampled fluid or tissue. Broadly, the Tmax is the time at which the peak concentration occurs. For the compound `CN1CC[C@]2(C)c3cc(OC(=O)Nc4ccccc4)ccc3N(C)C12.O=C(O)C(O)C(O)C(=O)O` (stereo partly drawn) [Posiphen, (3aR)-1,3a, 8-trimethyl-1,2,3,3a, 8,8a-hexahydropyrrolo (2,3-b) indol-5-yl phenylcarbamate tartrate], the half-life in data set [1] (CSF or brain, oral) was greater than 720 min; in “clinical”, greater than 720 min. This compound registered a Time to peak in data set [1] (all analyzed species: mouse, rat, dog, human) of no more than 2 h. Further, the Km in data set [2] (human, plasma, oral, as dose increased from 0.04 to 2.4 mg/kg, read-out: Michaelis constant (km)) was 0.01 to 0.015 µg/mL. The “Variability in absorption, metabolism and clearance between healthy subjects and Alzheimer's or Parkinson's patients” value in data set [2] is listed as “no variability”. In the data set “clinical”, this compound showed a Kp of 0.02. The AUC(0-t) in the data set “clinical” (po) is 20.7 ng·h/mL; in data set [3] (human, in vivo, po, 1.1 mg/kg, read-out: AUC (0–8 h)), 310 ng·h/mL; in data set [3] (human, in vivo, po, read-out: AUC (0-t)) it was 565 ng·h/mL. Also, the Cmax was 2.23 ng/mL in “clinical” (po); 117 ng/mL in data set [3] (human, in vivo, po); 120 ng/mL in data set [3] (human, in vivo, po, 1.1 mg/kg). The same compound showed a T1/2 in “clinical” (po) of 3 h. Further, the Tmax in “clinical” (po) was 17.26 h; in data set [3] (human plasma), 1.45 h; in data set [3] (human, in vivo, po, 1.1 mg/kg, human plasma, read-out: Tmax), 1 to 2 h. For the same compound, in “clinical” (po), the “Tmax (time of Cmax)” value is on record as 3 h. Besides, in data set [3] (human plasma), the “Primary compound in plasma” value was “primary compound”. The Maximum tolerated dose in data set [4] is 160 mg.
